From patent US4352818A, “Diazepine derivatives and their use” (Hoffmann-La Roche Inc., priority 1981, dated 1982)

Key:
[1] = biological target: central benzodiazepine receptors; assay: inhibition of the binding of tritiated diazepam at the specific benzodiazepine receptors in the cerebral cortex; details: 50 percent inhibition of the specific binding of the tritiated diazepam
Procedure: The affinity of compounds of formula I to the central benzodiazepine receptors was determined according to the method described in Life Science 20, 2101-2110 (1977) and Science 198, 849-851 (1977). According to this method, the inhibition of the binding of tritiated diazepam at the specific benzodiazepine receptors in the cerebral cortex by the respective test substances is ascertained. The IC50 ("50% inhibiting concentration") is that concentration of the respective test substance which brings about a 50 percent inhibition of the specific binding of the tritiated diazepam at the specific benzodiazepine receptors in the cerebral cortex.

[2] = system: activity of the diazepam in the pentetrazole test; assay: antagonism of diazepam in the pentetrazole test; type: in vivo; details: Mus musculus, po; counteracts the diazepam effect in 50% of the animals; diazepam 5 mg/kg i.p. 1 hour before, test compound p.o. 15 minutes before pentetrazole 120 mg/kg i.p.; mice
Procedure: (§1) This property was used to evaluate the test described hereinafter which permits the determination of compounds which are capable of antagonizing the central properties of 1,4-benzodiazepines which have tranquillizing activity.
(§2) The antagonistic activity of the compounds investigated, i.e. their ability to counteract the activity of the diazepam in the pentetrazole test, is determined by counting the mice which suffer convulsive attacks in this test.
In the following Table there are presented the results which have been obtained with representative members of the class of compound defined by formula I in the test previously described. The ED50 is the amount of test compound in mg/kg (p.o.) which in 50% of the animals counteracts the diazepam effect in the above test. Moreover, the Table contains the IC50 value (defined above) for all test compounds listed therein.

[3] = system: convulsive attacks in the pentetrazole test; assay: pentetrazole test (anticonvulsant activity of diazepam); type: in vivo; details: diazepam 5 mg/kg i.p. (supramaximal dosage), more than 900 mice
Procedure: as §1, §2

Row | Structure (SMILES) | IC50 [1] | ED50 [2] | protection from convulsive attacks [3]
1 | CN1Cc2cncn2-c2cccc(Cl)c2C1=O [(a) H Cl H H --CH3 O --, 7-chloro-4,5-dihydro-5-methyl-6H-imidazo[1,5-a][1,4]benzodiazepin-6-one] | 110 nM | 6.2 mg/kg | 
2 | O=C1c2sccc2-n2cnc(Cl)c2[C@@H]2CCCN12 [(b) -- -- Cl --(CH2)3 -- O (S), (S)-1-Chloro-10,11,12,12a-tetrahydro-8H-imidazo[5,1-c]pyrrolo[1,2-a]thieno[3,2-e][1,4]diazepin-8-one] | 17 nM | 0.83 mg/kg | 
3 | CN1Cc2c(Cl)ncn2-c2ccc(F)cc2C1=O [(a) F H Cl H --CH3 O --, 3-chloro-8-fluoro-4,5-dihydro-5-methyl-6H-imidazo[1,5-a][1,4]benzodiazepin-6-one] | 28 nM | 2.3 mg/kg | 
4 | O=C1c2c(Cl)cccc2-n2cncc2C2C=CCN12 (racemic) [(a) H Cl H --CH=CH--CH2 -- O (R/S), (R,S)-8-chloro-11,13a-dihydro-9H-imidazo[1,5-a]pyrrolo[2,1-c][1,4]benzodiazepin-9-one] | 240 nM | 10.9 mg/kg | 
5 | CN1Cc2c(I)ncn2-c2ccccc2C1=O [(a) H H J H --CH3 O --, 4,5-dihydro-3-iodo-5-methyl-6H-imidazo[1,5-a][1,4]benzodiazepin-6-one] | 23 nM | 2.5 mg/kg | 
6 | O=C1c2ccccc2-n2cnc(Cl)c2[C@@H]2CCCN12 [(a) H H Cl --(CH2)3 -- O (S), (S)-1-chloro-11,12,13,13a-tetrahydro-9H-imidazo[1,5-a]pyrrolo[2,1-c][1,4]benzodiazepin-9-one] | 120 nM | 8 mg/kg | 
7 | CN1Cc2c([N+](=O)[O-])ncn2-c2ccccc2C1=O [(a) H H --NO2 H --CH3 O --, 4,5-dihydro-5-methyl-3-nitro-6H-imidazo[1,5-a][1,4]benzodiazepin-6-one] | 72 nM | 4 mg/kg | 
8 | O=C1c2ccccc2-n2cnc(Br)c2[C@@H]2CCCN12 [(a) H H Br --(CH2)3 -- O (S), (S)-1-bromo-11,12,13,13a-tetrahydro-9H-imidazo[1,5-a]pyrrolo[2,1-c][1,4]benzodiazepin-9-one] | 48 nM | 9.9 mg/kg | 
9 | CN1Cc2c(Cl)ncn2-c2cccc(Cl)c2C1=O [(a) H Cl Cl H --CH3 O --, 3,7-dichloro-4,5-dihydro-5-methyl-6H-imidazo[1,5-a][1,4]benzodiazepin-6-one] | 3.6 nM | 0.9 mg/kg | 
10 | CN1Cc2c(Br)ncn2-c2ccc(F)cc2C1=O [(a) F H Br H --CH3 O --, 3-bromo-8-fluoro-4,5-dihydro-5-methyl-6H-imidazo[1,5-a][1,4]benzodiazepin-6-one] | 51 nM | 7.1 mg/kg | 
11 | COCc1ncn2c1CN(C)C(=O)c1ccccc1-2 [(a) H H --CH2 OCH3 H --CH3 O --, 4,5-dihydro-3-(methoxymethyl)-5-methyl-6H-imidazo[1,5-a][1,4]benzodiazepin-6-one] | 380 nM | 8.9 mg/kg | 
12 | O=C1c2c(Cl)cccc2-n2cnc(Cl)c2C2C=CCN12 (racemic) [(a) H Cl Cl --CH=CH--CH2 -- O (R/S), (R,S)-1,8-dichloro-11,13a-dihydro-9H-imidazo[1,5-a]pyrrolo[2,1-c][1,4]benzodiazepin-9-one] | 3.9 nM | 1 mg/kg | 
13 | CN1Cc2c(Br)ncn2-c2ccccc2C1=O [(a) H H Br H --CH3 O --, 3-bromo-4,5-dihydro-5-methyl-6H-imidazo[1,5-a][1,4]benzodiazepin-6-one] | 34 nM | 4.5 mg/kg | 
14 | COCc1ncn2c1CN(C)C(=O)c1c(Cl)cccc1-2 [(a) H Cl --CH2 OCH3 H --CH3 O --, 7-chloro-4,5-dihydro-3-(methoxymethyl)-5-methyl-6H-imidazo[1,5-a][1,4]benzodiazepin-6-one] | 30 nM | 1.4 mg/kg | 
15 | CN1Cc2c(Cl)ncn2-c2ccccc2C1=O [(a) H H Cl H --CH3 O --, 3-chloro-4,5-dihydro-5-methyl-6H-imidazo[1,5-a][1,4]benzodiazepin-6-one] | 100 nM | 1.7 mg/kg | 
16 | CN1Cc2c(Cl)ncn2-c2ccccc2C1=S [(a) H H Cl H --CH3 S --, 3-chloro-4,5-dihydro-5-methyl-6H-imidazo[1,5-a][1,4]benzodiazepine-6-thione] | 250 nM | 10.5 mg/kg | 
17 | CN1C(=O)CN=C(c2ccccc2)c2cc(Cl)ccc21 [diazepam] |  |  | protects all experimental animals from convulsive attacks
